These results are taken from US6409995B1, “Use of amino-substituted hydroxybenzophenones as photostable UV filters in cosmetic and pharmaceutical preparations” (BASF Aktiengesellschaft, priority 1999, dated 2002).

What is called melting point is the temperature of the solid-liquid transition.

Test in one series: not given
Settings: not given
Regarding `CCN(CC)c1ccc(C(=O)c2ccccc2)c(O)c1` [Example 2, 4-diethylamino-2-hydroxyphenyl phenyl ketone], the melting point fell in the range of 46 to 48 °C.
As to `O=C(O)c1ccccc1C(=O)c1ccc(N2CCCC2)cc1O` [Example 3], the melting point is 203 °C.
In the case of `COC(=O)c1ccccc1C(=O)c1ccc(N2CCCC2)cc1O` [Example 4], the melting point was determined as 164 °C.

The next series is described as follows: UV absorption of the compounds (absorption maximum and specific absorbance). Type of series: physicochemical. The settings on record: UV absorption maximum.
The compound `CCN(CC)c1ccc(C(=O)c2ccccc2C(=O)OC)c(O)c1` [Example 1, Methyl 2-(4-diethylamino-2-hydroxybenzoyl)benzoate] returned a λmax of 354 nm.
The same measure, in the same setting: with `CCN(CC)c1ccc(C(=O)c2ccccc2)c(O)c1` [Example 2, 4-diethylamino-2-hydroxyphenyl phenyl ketone] the figure was 359 nm; with `O=C(O)c1ccccc1C(=O)c1ccc(N2CCCC2)cc1O` [Example 3], 355 nm; with `COC(=O)c1ccccc1C(=O)c1ccc(N2CCCC2)cc1O` [Example 4], 355 nm.

The series is the same for the next values; noted with them: specific absorbance at λmax.
As for `CCN(CC)c1ccc(C(=O)c2ccccc2C(=O)OC)c(O)c1` [Example 1, Methyl 2-(4-diethylamino-2-hydroxybenzoyl)benzoate], the “E^11” value is given as 1173.
Take `CCN(CC)c1ccc(C(=O)c2ccccc2)c(O)c1` [Example 2, 4-diethylamino-2-hydroxyphenyl phenyl ketone]: the “E^11” value is 1280.
Same read-out and setting: for `O=C(O)c1ccccc1C(=O)c1ccc(N2CCCC2)cc1O` [Example 3] the value was 1167; for `COC(=O)c1ccccc1C(=O)c1ccc(N2CCCC2)cc1O` [Example 4], 1179.

Test in another series: not given
The following applies: used alone or in combination with UV-B filters; cited from earlier work.
As to `COc1ccc(C(=O)CC(=O)c2ccc(C(C)(C)C)cc2)cc1` [PARSOL 1789, 4-(1,1-dimethylethyl)-4′-methoxydibenzoylmethane], the photochemical stability result is recorded as “does not have sufficient photochemical stability”.
